# Test results as given in the supplement of paper PMC10307832.
# Key:
# Experiment in all cases: relative viability (nuclei count vs DMSO), 5 days (fraction); higher = more cells survive
# NCI-H441 = system: NCI-H441
# Outline: (§1)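 For relative viability, nuclei counts in treated wells were divided by those in vehicle wells. Lung cancer cell lines had been pin-tool dosed in 1536-well plates the day after seeding and cultured for 5 days, then fixed and stained in one step (final 0.05% Triton X-100, 1% formaldehyde, 1 ug/ml Hoechst) and imaged at 4×. Doses were one drug alone or a fixed anchor-drug dose plus five library-drug doses (not always all listed) in √10 steps, and values are duplicate-plate medians.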
# LOU-NH91 = system: LOU-NH91
# Outline: as §1
# NCI-H1437 = system: NCI-H1437
# Outline: as §1
# NCI-H2085 = system: NCI-H2085
# Outline: as §1
# NCI-H2009 = system: NCI-H2009
# Outline: as §1
# HOP-62 = system: HOP-62
# Outline: as §1
# HCC-78 = system: HCC-78
# Outline: as §1
# NCI-H1355 = system: NCI-H1355
# Outline: as §1
# NCI-H322M = system: NCI-H322M
# Outline: as §1
# ChaGo-K-1 = system: ChaGo-K-1
# Outline: as §1
# NCI-H2170 = system: NCI-H2170
# Outline: as §1
# ABC-1 = system: ABC-1
# Outline: as §1
# NCI-H1755 = system: NCI-H1755
# Outline: as §1
# NCI-H727 = system: NCI-H727
# Outline: as §1
# RERF-LC-KJ = system: RERF-LC-KJ
# Outline: as §1
# NCI-H1792 = system: NCI-H1792
# Outline: as §1
# UMC-11 = system: UMC-11
# Outline: as §1
# NCI-H2405 = system: NCI-H2405
# Outline: as §1
# SK-MES-1 = system: SK-MES-1
# Outline: as §1
# NCI-H650 = system: NCI-H650
# Outline: as §1
# NCI-H2023 = system: NCI-H2023
# Outline: as §1
# NCI-H23 = system: NCI-H23
# Outline: as §1
# LCLC-97TM1 = system: LCLC-97TM1
# Outline: as §1
structure (smiles),measurement,setting,value
Cc1cnc(-c2cnc(NCCNc3ccc(C#N)cn3)nc2-c2ccc(Cl)cc2Cl)[nH]1 + C[C@@H](Oc1cc(-c2cnn(C3CCNCC3)c2)cnc1N)c1c(Cl)ccc(F)c1Cl [Crizotinib] (partner 1 µM),relative viability,NCI-H441; first compound 0.08 µM,0.845
same,relative viability,NCI-H441; first compound 0.253 µM,0.528
same,relative viability,NCI-H441; first compound 0.8 µM,0.713
same,relative viability,NCI-H441; first compound 2.53 µM,0.791
same,relative viability,LOU-NH91; first compound 0.08 µM,0.74
same,relative viability,LOU-NH91; first compound 0.253 µM,0.724
same,relative viability,LOU-NH91; first compound 0.8 µM,0.749
same,relative viability,LOU-NH91; first compound 2.53 µM,0.782
same,relative viability,NCI-H1437; first compound 0.08 µM,0.912
same,relative viability,NCI-H1437; first compound 0.253 µM,0.943
same,relative viability,NCI-H1437; first compound 0.8 µM,0.944
same,relative viability,NCI-H1437; first compound 2.53 µM,0.981
same,relative viability,NCI-H2085; first compound 0.08 µM,0.719
same,relative viability,NCI-H2085; first compound 0.253 µM,0.888
same,relative viability,NCI-H2085; first compound 0.8 µM,1.06
same,relative viability,NCI-H2085; first compound 2.53 µM,0.974
same,relative viability,NCI-H2009; first compound 0.08 µM,1.09
same,relative viability,NCI-H2009; first compound 0.253 µM,0.958
same,relative viability,NCI-H2009; first compound 0.8 µM,1
same,relative viability,NCI-H2009; first compound 2.53 µM,0.892
same,relative viability,HOP-62; first compound 0.08 µM,0.892
same,relative viability,HOP-62; first compound 0.253 µM,0.816
same,relative viability,HOP-62; first compound 0.8 µM,0.997
same,relative viability,HOP-62; first compound 2.53 µM,0.853
same,relative viability,HCC-78; first compound 0.08 µM,0.349
same,relative viability,HCC-78; first compound 0.253 µM,0.336
same,relative viability,HCC-78; first compound 0.8 µM,0.297
same,relative viability,HCC-78; first compound 2.53 µM,0.362
same,relative viability,NCI-H1355; first compound 0.08 µM,1.1
same,relative viability,NCI-H1355; first compound 0.253 µM,0.9
same,relative viability,NCI-H1355; first compound 0.8 µM,1
same,relative viability,NCI-H1355; first compound 2.53 µM,0.992
same,relative viability,NCI-H322M; first compound 0.08 µM,0.925
same,relative viability,NCI-H322M; first compound 0.253 µM,0.81
same,relative viability,NCI-H322M; first compound 0.8 µM,0.821
same,relative viability,NCI-H322M; first compound 2.53 µM,0.858
same,relative viability,ChaGo-K-1; first compound 0.08 µM,1.17
same,relative viability,ChaGo-K-1; first compound 0.253 µM,0.999
same,relative viability,ChaGo-K-1; first compound 0.8 µM,1.06
same,relative viability,ChaGo-K-1; first compound 2.53 µM,0.989
same,relative viability,NCI-H2170; first compound 0.08 µM,1.25
same,relative viability,NCI-H2170; first compound 0.253 µM,1.07
same,relative viability,NCI-H2170; first compound 0.8 µM,1.26
same,relative viability,NCI-H2170; first compound 2.53 µM,1.06
same,relative viability,ABC-1; first compound 0.08 µM,1.03
same,relative viability,ABC-1; first compound 0.253 µM,0.831
same,relative viability,ABC-1; first compound 0.8 µM,1.23
same,relative viability,ABC-1; first compound 2.53 µM,1.05
same,relative viability,NCI-H1755; first compound 0.08 µM,0.853
same,relative viability,NCI-H1755; first compound 0.253 µM,0.856
same,relative viability,NCI-H1755; first compound 0.8 µM,0.824
same,relative viability,NCI-H1755; first compound 2.53 µM,0.804
same,relative viability,NCI-H727; first compound 0.08 µM,1.67
same,relative viability,NCI-H727; first compound 0.253 µM,0.771
same,relative viability,NCI-H727; first compound 0.8 µM,0.797
same,relative viability,NCI-H727; first compound 2.53 µM,0.676
same,relative viability,RERF-LC-KJ; first compound 0.08 µM,0.833
same,relative viability,RERF-LC-KJ; first compound 0.253 µM,0.712
same,relative viability,RERF-LC-KJ; first compound 0.8 µM,0.794
same,relative viability,RERF-LC-KJ; first compound 2.53 µM,0.846
same,relative viability,NCI-H1792; first compound 0.08 µM,0.975
same,relative viability,NCI-H1792; first compound 0.253 µM,0.803
same,relative viability,NCI-H1792; first compound 0.8 µM,0.947
same,relative viability,NCI-H1792; first compound 2.53 µM,0.936
same,relative viability,UMC-11; first compound 0.08 µM,0.82
same,relative viability,UMC-11; first compound 0.253 µM,0.551
same,relative viability,UMC-11; first compound 0.8 µM,0.598
same,relative viability,UMC-11; first compound 2.53 µM,0.602
same,relative viability,NCI-H2405; first compound 0.08 µM,0.883
same,relative viability,NCI-H2405; first compound 0.253 µM,0.774
same,relative viability,NCI-H2405; first compound 0.8 µM,0.797
same,relative viability,NCI-H2405; first compound 2.53 µM,0.809
same,relative viability,SK-MES-1; first compound 0.08 µM,0.97
same,relative viability,SK-MES-1; first compound 0.253 µM,0.937
same,relative viability,SK-MES-1; first compound 0.8 µM,1.05
same,relative viability,SK-MES-1; first compound 2.53 µM,0.941
same,relative viability,NCI-H650; first compound 0.08 µM,0.786
same,relative viability,NCI-H650; first compound 0.253 µM,0.676
same,relative viability,NCI-H650; first compound 0.8 µM,0.673
same,relative viability,NCI-H650; first compound 2.53 µM,0.611
same,relative viability,NCI-H2023; first compound 0.08 µM,0.775
same,relative viability,NCI-H2023; first compound 0.253 µM,0.696
same,relative viability,NCI-H2023; first compound 0.8 µM,0.664
same,relative viability,NCI-H2023; first compound 2.53 µM,0.688
same,relative viability,NCI-H23; first compound 0.08 µM,0.676
same,relative viability,NCI-H23; first compound 0.253 µM,0.496
same,relative viability,NCI-H23; first compound 0.8 µM,0.638
same,relative viability,NCI-H23; first compound 2.53 µM,0.621
same,relative viability,LCLC-97TM1; first compound 0.08 µM,0.338
same,relative viability,LCLC-97TM1; first compound 0.253 µM,0.401
same,relative viability,LCLC-97TM1; first compound 0.8 µM,0.362
same,relative viability,LCLC-97TM1; first compound 2.53 µM,0.349
